Like-named read-outs stand apart in the source and are kept apart here.
Assays:
rat TRPV1 (rTRPV1) = rat TRPV1 (rTRPV1) (Rattus norvegicus, UniProt O35433); assay: Whole-cell patch clamp of rat TRPV1 expressed in HEK-293T cells; assay type: cell-based; conditions: for Increase of agonist-evoked current prior to onset of inhibition: citral 1 mM, n = 8
Protocol: (§1) Transformed human embryonic kidney-293 (HEK-293T) cells were grown in Dulbecco's modified Eagle's medium (DMEM)+F-12 supplemented with 10% fetal calf serum, and 1% penicillin/streptomycin in 5% CO2 at 37°C. Cells grown to 90% confluence in 35 mm Petri dishes were transiently transfected with plasmid DNA encoding a TRP channel construct (1 µg). Rat TRPV1 (rTRPV1) was cloned into an enhanced green fluorescent protein-containing vector (pTracer-CMV2; Invitrogen, Carlsbad, CA). Chicken TRPV1 (cTRPV1), the chicken rat TRPV1 chimera (crcTRPV1), rat TRPV2 (rTRPV2), mouse TRPV3 (mTRPV3), mouse TRPV4 (mTRPV4), rat TRPM8 (rTRPM8), and rat TRPA1 (rTRPA1), were cloned into pcDNA3 and co-transfected with enhanced green fluorescent protein (0.1 µg) to follow expression. The cTRPV1 and crcTRPV1 clones were kindly provided by Dr. David Julius. Recordings were carried out 24–36 hours after transfection. Cells were split via trypsin EDTA, plated on glass coverslips at 5–10% confluence, and used 2–3 hours later.
(§2) Electrophysiological experiments were performed using the whole-cell patch-clamp technique at room temperature. Modified Ringer's solution with low chloride and nominal calcium contained (in mM): 130 sodium hydroxide, 5 potassium chloride, 1 magnesium chloride, 10 sodium 4-(2-hydroxyethyl)-1-piperazineethanesulfonic acid, 10 2-(N-morpholino)ethanesulfonic acid, and 20 glucose (pH 7.4; 310 milli-osmolar). […] 2 mM calcium chloride was included in the external solution where noted. To activate TRPV1, the modified Ringer's solution was made at pH 5 (low pH solution) and the chloride concentration was kept to a minimum to prevent contamination of the TRPV1 currents with acid-activated chloride currents. For recordings from heterologously expressing cells, the internal pipette solution contained (in mM): 125 cesium-Methanesulfonate, 10 cesium (1.2-bis(o-aminophenoxy)ethane-N,N,N',N'-tetraacetic acid, 8 sodium chloride, 4 magnesium adenosine triphosphate, and 10 HEPES (pH 7.2; 290 mOSM; nominal free calcium concentrations). For TRPA1 and dorsal root ganglion recordings, the internal pipette solution contained (in mM): 110 cesium-Methanesulfonate, 0.5 cesium4BAPTA, 8 sodium chloride, 0.2 calcium chloride, 4 magnesium-ATP, 4 sodium-GTP, and 10 4-(2-hydroxyethyl)-1-piperazineethanesulfonic acid (pH 7.2; 290 mOSM; 100 nM free calcium internal). MaxChelator was used to calculate the free calcium concentration (http://www.stanford.edu/cpatton/maxc.html).
(§3) Recordings were obtained using an Axopatch 200B amplifier, Digidata 1322A analog-to-digital converter, and pClamp 8.01 software (Molecular Devices, Union City, CA). Data were low-pass filtered at 2 kHz and digitized at 5 kHz. Borosilicate glass pipettes (World Precision Instruments, Sarasota, FL) were typically 3 MΩ pipette resistance after fire polishing. Cell capacitance was measured for each cell, and access resistance compensated to ∼80%. Recordings were begun ∼5 minutes after initial rupture to ensure initial steady state conditions. Current-voltage (I-V) relations were obtained using a ramp protocol. Voltage ramps (400 ms) from −100 to +40 or +100 mV were applied every 1–2 seconds and the holding potential was either −70 mV or 0 mV (see Figure Legends). A 40 ms step was added at the beginning and end of the ramp (i.e. at −100 mV, +40 mV or +100 mV). Liquid junction potentials were not corrected.
(§4) The dose response curves were fit with the Hill equation, where [drawing 8] and [A] is the concentration of agonist or blocker, N is the Hill coefficient, and KD is the [A] for Imeasured/Imax = 0.5. The term apparent dissociation constant is used in place of the half concentration of excitation and inhibition. […] Averaged data are presented as mean±standard error (S.E.) throughout. Statistical analysis included paired and unpaired Student's t-test comparisons of the data; p values are reported in the text.

rat TRPM8 (rTRPM8) = rat TRPM8 (rTRPM8) (Rattus norvegicus, UniProt Q8R455); assay: Whole-cell patch clamp of rat TRPM8 expressed in HEK-293T cells; assay type: cell-based
rat TRPM8 (rTRPM8), sequence (Q8R455 whole entry): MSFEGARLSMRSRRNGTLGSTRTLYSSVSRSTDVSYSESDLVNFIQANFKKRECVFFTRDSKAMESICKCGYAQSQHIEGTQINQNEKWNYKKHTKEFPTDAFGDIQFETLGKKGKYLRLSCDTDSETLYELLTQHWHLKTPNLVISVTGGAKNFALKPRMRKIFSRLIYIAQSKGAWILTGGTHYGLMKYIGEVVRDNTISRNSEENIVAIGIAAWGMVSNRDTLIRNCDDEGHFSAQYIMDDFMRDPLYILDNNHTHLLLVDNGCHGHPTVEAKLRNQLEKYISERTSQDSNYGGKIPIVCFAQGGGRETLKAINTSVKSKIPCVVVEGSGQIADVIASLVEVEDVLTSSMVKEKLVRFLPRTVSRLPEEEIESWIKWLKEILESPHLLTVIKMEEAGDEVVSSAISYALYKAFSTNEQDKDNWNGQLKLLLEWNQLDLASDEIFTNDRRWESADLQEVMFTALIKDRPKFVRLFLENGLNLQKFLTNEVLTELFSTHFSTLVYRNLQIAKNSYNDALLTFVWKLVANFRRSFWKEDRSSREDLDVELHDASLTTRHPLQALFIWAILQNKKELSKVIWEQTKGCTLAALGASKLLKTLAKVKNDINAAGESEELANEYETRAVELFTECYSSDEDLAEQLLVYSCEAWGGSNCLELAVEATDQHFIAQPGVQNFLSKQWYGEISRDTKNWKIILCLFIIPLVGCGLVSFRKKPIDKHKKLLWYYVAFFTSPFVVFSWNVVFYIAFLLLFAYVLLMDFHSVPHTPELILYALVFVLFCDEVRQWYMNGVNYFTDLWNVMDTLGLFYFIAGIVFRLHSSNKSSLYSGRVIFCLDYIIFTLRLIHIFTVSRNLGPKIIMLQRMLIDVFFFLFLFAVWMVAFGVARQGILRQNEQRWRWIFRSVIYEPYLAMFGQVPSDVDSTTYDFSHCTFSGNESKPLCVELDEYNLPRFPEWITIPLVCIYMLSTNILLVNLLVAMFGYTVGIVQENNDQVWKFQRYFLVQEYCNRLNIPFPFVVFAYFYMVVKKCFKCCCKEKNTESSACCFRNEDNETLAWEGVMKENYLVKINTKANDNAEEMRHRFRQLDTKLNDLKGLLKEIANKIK
Protocol: as §1, §2, §3, §4

Chicken TRPV1 (cTRPV1) = assay: Whole-cell patch clamp of chicken TRPV1 expressed in HEK-293T cells; assay type: cell-based
Protocol: as §1
Electrophysiological experiments were performed using the whole-cell patch-clamp technique at room temperature. […]
Recordings were obtained using an Axopatch 200B amplifier, Digidata 1322A analog-to-digital converter, and pClamp 8.01 software (Molecular Devices, Union City, CA). […] Cell capacitance was measured for each cell, and access resistance compensated to ∼80%. […]

[1] = system: dorsal root ganglion neurons; assay: Fura-2 calcium imaging of dorsal root ganglion neurons; assay type: cell-based, rat; conditions: 1 mM citral; freshly isolated neurons
Description: Dorsal root ganglion neurons from all spinal levels were removed from postnatal day 12 to 20 Sprague Dawley rats and the nerve roots trimmed. Calcium- and magnesium-free (CMF) Hank's solution contained (in mM): 136.9 sodium chloride, 5.4 potassium chloride, 0.34 dibasic sodium orthophosphate, 0.44 monopotassium phosphate, 5.6 glucose, 5 4-(2-hydroxyethyl)-1-piperazineethanesulfonic acid, 0.005% phenol red, pH 7.4. CMF Hank's was used throughout the isolation and enzymatic treatments. The isolated ganglia were treated for 20 minutes at 37°C with 20 U/ml of papain (Worthington Biochemical, Lakewood, NJ) and 5 mM cysteine. The ganglia were then transferred to CMF Hank's with 3 mg/ml collagenase (type I; Worthington) and 4 mg/ml dispase (neutral type II; Roche Applied Science, Indianapolis, IN) for 20 minutes at 37°C. […]
Dorsal root ganglion neurons were loaded with 5 µM fura-2 AM and 0.02% pluronic acid in media at 37°C for 60 minutes. […] The MetaFluor imaging system (Universal Imaging Corporation) was used to record fluorescence at 340 and 380 nm excitation wavelengths. Background fluorescence, measured as the ratio 340/380 in a “cell-free” zone during the experiment, was subtracted from the data. […]

[2] = no reference given; cited from earlier work

rat TRPV1 (rTRPV1), sequence (O35433 whole entry): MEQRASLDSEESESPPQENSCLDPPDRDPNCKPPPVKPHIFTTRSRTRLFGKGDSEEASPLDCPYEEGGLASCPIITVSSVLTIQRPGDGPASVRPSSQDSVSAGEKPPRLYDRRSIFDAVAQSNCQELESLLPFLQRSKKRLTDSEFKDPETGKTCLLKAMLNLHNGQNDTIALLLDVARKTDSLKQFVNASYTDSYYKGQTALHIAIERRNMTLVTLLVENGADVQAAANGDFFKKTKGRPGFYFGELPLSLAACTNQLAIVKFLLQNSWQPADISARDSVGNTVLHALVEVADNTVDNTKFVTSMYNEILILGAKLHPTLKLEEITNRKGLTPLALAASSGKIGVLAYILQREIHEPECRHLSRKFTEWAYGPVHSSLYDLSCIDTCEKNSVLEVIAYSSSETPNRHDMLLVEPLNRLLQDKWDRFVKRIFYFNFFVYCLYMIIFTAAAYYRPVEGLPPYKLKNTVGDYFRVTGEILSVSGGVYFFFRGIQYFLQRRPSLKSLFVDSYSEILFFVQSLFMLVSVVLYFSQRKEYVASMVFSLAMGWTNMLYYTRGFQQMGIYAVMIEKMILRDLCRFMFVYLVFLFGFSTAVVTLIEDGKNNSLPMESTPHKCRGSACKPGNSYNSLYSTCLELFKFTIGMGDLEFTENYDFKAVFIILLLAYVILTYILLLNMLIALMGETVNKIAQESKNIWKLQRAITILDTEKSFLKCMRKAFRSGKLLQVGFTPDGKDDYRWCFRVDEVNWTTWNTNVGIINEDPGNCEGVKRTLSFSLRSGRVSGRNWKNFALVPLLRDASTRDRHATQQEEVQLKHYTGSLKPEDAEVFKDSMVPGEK

SMILES: CC(C)=CCCC(C)=CC=O [citral, 3,7-dimethyl-2,6-octadienal]
- Reversibility of citral inhibition of agonist-evoked current (rat TRPV1 (rTRPV1)): essentially irreversible
- pH 5-evoked TRPV1 current remaining after citral washout (rat TRPV1 (rTRPV1); 30 seconds after citral washout, n = 5): 0.2±0.1%
- Hill coefficient (activation) (rat TRPV1 (rTRPV1); +40 mV): 2.9
- Increase of agonist-evoked current prior to onset of inhibition (rat TRPV1 (rTRPV1); +40 mV): 1.6±0.2 fold
- Increase of agonist-evoked current prior to onset of inhibition (rat TRPV1 (rTRPV1); −100 mV): 1.8±0.3 fold
- Kd (rat TRPV1 (rTRPV1); citral activation, +40 mV, nominal external calcium, read-out: Activation KD, app): 417 µM
- Kd (rat TRPV1 (rTRPV1); citral activation, −40 mV, nominal external calcium, read-out: Activation KD, app): 465 µM
- Hill coefficient (inhibition) (rat TRPV1 (rTRPV1); citral block of pH5-evoked current): 1.3
- Kd (rat TRPV1 (rTRPV1); citral block of pH5-evoked current, read-out: Inhibition KD, app): 187 µM
- Agonist efficacy IpH5/Icitral (1 mM) (rat TRPV1 (rTRPV1); fold larger, −40 mV, n = 3): IpH5/Icitral (1 mM) 28±8 fold larger (n = 3; −40 mV)
- Time for >50% inhibition of peak TRP current in continued presence of citral (rat TRPV1 (rTRPV1); n = 9): ≤ 14 s
- Hill coefficient (activation) (rat TRPV1 (rTRPV1); −40 mV): 2.7
- Increase of inward ITRPV1 above baseline (rat TRPV1 (rTRPV1); −40 mV): 14 fold
- Hill coefficient (activation) (rat TRPM8 (rTRPM8)): 1.6
- Reversibility of citral inhibition of agonist-evoked current (rat TRPM8 (rTRPM8)): essentially irreversible
- Hill coefficient (inhibition) (rat TRPM8 (rTRPM8); +40 mV): 1.7
- Increase in TRPM8 current evoked by menthol after citral washout (rat TRPM8 (rTRPM8); after 60 seconds washout, n = 3): 4±2%
- Kd (rat TRPM8 (rTRPM8); citral activation, nominal external calcium, read-out: Activation KD, app): 33.5 µM
- Kd (rat TRPM8 (rTRPM8); citral block of menthol (1 mM)-evoked current, +40 mV, read-out: Inhibition KD, app): 188 µM
- Kd (rat TRPM8 (rTRPM8); citral block of menthol (1 mM)-evoked current, −40 mV, read-out: Inhibition KD, app): 241 µM
- Agonist efficacy Imenthol (30 µM)/Icitral (300 µM) (rat TRPM8 (rTRPM8); fold larger, −40 mV, n = 5): Imenthol (30 µM)/Icitral (300 µM) 74±28 fold larger (n = 5; −40 mV)
- Effect of citral addition on agonist-induced current (rat TRPM8 (rTRPM8); menthol-induced, n = 4): not increased
- Time for >50% inhibition of peak TRP current in continued presence of citral (rat TRPM8 (rTRPM8); n = 7): ≤ 14 s
- Hill coefficient (inhibition) (rat TRPM8 (rTRPM8); −40 mV): 2.0
- Increase of inward ITRPM8 above baseline (rat TRPM8 (rTRPM8); −40 mV): 2 fold
- Activation of cTRPV1 current (Chicken TRPV1 (cTRPV1); n = 6): did not activate
- Effect on cTRPV1 currents activated by pH 5 solution (Chicken TRPV1 (cTRPV1); pH 5): reversibly inhibited
- Neurons with increased internal calcium concentration among capsaicin-responsive neurons [1]: 12 of 35
- log P (oil/water) coefficient [2]: three
